Data: patent US20100028319A1, “COMPOSITION FOR PREVENTION OR TREATMENT OF DIABETES” (KANEKA CORPORATION, priority 2007, published 2010)

Experiments:
HIT-T15 cells [1] = assay: Effects on ATP production (intracellular ATP level, ATPLite) in HIT-T15 cells; format: cell-based; settings: 24 h + 24 h cultivation
Description: Ham'F12 medium (GIBCO) containing 200 units of penicillin (GIBCO), […] streptomycin (GIBCO), and 10% fetal bovine serum (GIBCO) is normally used as a growth medium for cultivating HIT-T15 cells.
A growth medium containing a fetal bovine serum at a concentration of 0.5% was placed in each well of a 96-well microplate, and HIT-T15 cells were seeded in the wells at a density of 1×10^4 cells/well. Next day, the growth medium of each well was replaced with a growth medium containing 0.5% fetal bovine serum, in which reduced coenzyme A was further added to a final concentration of 6.25, 12.5, 25, 50 or 100 μg/ml. Twenty-four hours later, the medium of each well was removed and replaced with a growth medium (containing 10% fetal bovine serum) in which reduced coenzyme A was added at the same concentration as mentioned above, and cultivation was continued for another 24 hours. After washing three times with PBS, the intracellular ATP level was measured using ATPLite (PerkinElmer).
A growth medium containing a fetal bovine serum at a concentration of 0.5% was placed in each well of a 96-well microplate, and the cells were seeded in the wells at a density of 1×10^4 cells/well. Next day, the growth medium of each well was replaced with a growth medium containing 0.5% fetal bovine serum, in which reduced coenzyme A or three kinds of coenzyme A precursors (pantothenic aid, pantethine, cystein) or oxidized coenzyme A was added. The coenzyme A precursors and the oxidized coenzyme A were added at the same molar concentrations as that of the reduced coenzyme A. Twenty-four hours later, the medium of each well was removed and replaced with a growth medium (containing 10% fetal bovine serum) in which reduced coenzyme A, the coenzyme A precursor, or oxidized coenzyme A was added at the same concentration as mentioned above, and cultivation was continued for another 24 hours. After washing three times with PBS, the intracellular ATP level was measured using ATPLite (PerkinElmer).

HIT-T15 cells [2] = assay: Glucose-responsive insulin secretion in HIT-T15 cells (ELISA); format: cell-based; settings: 50 μg/ml reduced coenzyme A; 20 mM glucose load; supernatant collected at intervals of 30 minutes; FIG. 3
Description: HIT-T15 cells were seeded in the wells of a 96-well plate at a density of 50,000 cells/100 μl medium/well. An RPMI 1640 medium (GIBCO) containing 1% fetal bovine serum and 6 mM glucose was used at this time. Twenty-four hours later, the medium of each well was replaced with an RPMI 1640 medium (containing 1% fetal bovine serum and 6 mM glucose) in which reduced coenzyme A was added to a final concentration of 50 μg/ml. Another 24 hours later, the medium of each well was replaced with an RPMI 1640 medium (containing 10% fetal bovine serum and 6 mM glucose) in which reduced coenzyme A was added to a final concentration of 50 μg/ml. Yet another 24 hours later, the wells were washed with Krebs-Ringer buffer containing 10 mM of HEPES (KRB-HEPES), and further added with 100 μl of KRB-HEPES, followed by culturing for one hour. Next, after removal of the KRB-HEPES, the wells were washed with the same buffer. To the wells was added 100 μl of KRB-HEPES containing 20 mM of glucose, and the supernatant liquid was collected at intervals of 30 minutes for storing frozen. At a later date, the insulin amount in the supernatant liquid samples was assayed using ELISA (Lebis).

[3] = same molar concentrations, FIG. 2

## CC(C)(COP(=O)(O)OP(=O)(O)OC[C@H]1O[C@@H](n2cnc3c(N)ncnc32)[C@H](O)[C@@H]1OP(=O)(O)O)[C@@H](O)C(=O)NCCC(=O)NCCS [reduced coenzyme A]
HIT-T15 cells [1]; reduced coenzyme A added at 6.25, 12.5, 25, 50 or 100 μg/ml, FIG. 1
  intracellular ATP level in HIT-T15 cells: significantly increased
HIT-T15 cells [1]; [3]
  ATP production in comparison to addition of oxidized coenzyme A: promoted ATP production significantly in comparison to addition of oxidized coenzyme A
  ATP production in comparison to additions of the precursors (pantothenic acid, pantethine, cystein) and a mixture of the three precursors: promoted ATP production significantly in comparison to additions of the precursors
HIT-T15 cells [2]
  glucose-responsive insulin secretion in HIT-T15 cells: significantly promoted
